Assays:
BV-2 = test: Inhibition of LPS-induced nitric oxide production in mouse BV2 cells pretreated for 1 hr before LPS stimulation measured after 24 hrs by Griess assay; format: functional, cell-based
[1] = Cytotoxicity against human HCT116 cells at 10 uM measured after 72 hrs by MTT assay; format: toxicity, cell-based; conditions: hct-116, 72 h
[2] = Cytotoxicity against human HepG2 cells at 10 uM measured after 72 hrs by MTT assay; format: toxicity, cell-based; conditions: hepg2, 72 h
[3] = Cytotoxicity against human BGC823 cells at 10 uM measured after 72 hrs by MTT assay; format: toxicity, cell-based; conditions: bgc-823, 72 h
[4] = Cytotoxicity against human NCI-H1650 cells at 10 uM measured after 72 hrs by MTT assay; format: toxicity, cell-based; conditions: nci-h1650, 72 h
[5] = Cytotoxicity against human A2780 cells at 10 uM measured after 72 hrs by MTT assay; format: toxicity, cell-based; conditions: a2780, 72 h

| IC50 (BV-2) | Compound | Activity [1] | Activity [2] | Activity [3] | Activity [4] | Activity [5] |
| --- | --- | --- | --- | --- | --- | --- |
| 1.16 µM | CO[C@@H]1CC(=O)c2cccc3c2[C@@]12Oc1ccc(O)c4c1[C@](O3)(O2)[C@@H]1O[C@@H]1[C@@H]4O [PREUSSOMERIN C] | Non-Toxic | Non-Toxic | Non-Toxic | Non-Toxic | Non-Toxic |
| > 100 µM | COc1cc(O)cc2c1C(=O)O[C@@H](C)CCCCCCC2 [LASIODIPLODIN] | Non-Toxic | Non-Toxic | Non-Toxic | Non-Toxic | Non-Toxic |
| 2.05 µM | Oc1cccc2c1[C@@H](O)[C@H]1O[C@H]1C21Oc2cccc3cccc(c23)O1 | Non-Toxic | Non-Toxic | Non-Toxic | Non-Toxic | Non-Toxic |
| 11.7 µM | O=C1CC[C@]23Oc4ccc(O)c5c4[C@](Oc4cccc1c42)(O3)[C@@H]1O[C@@H]1[C@@H]5O | Non-Toxic | Non-Toxic | Non-Toxic | Non-Toxic | Non-Toxic |
| 4.85 µM | Oc1cccc2c1[C@H](O)[C@@H]1O[C@@H]1C21Oc2cccc3cccc(c23)O1 | Non-Toxic | Non-Toxic | Non-Toxic | Non-Toxic | Non-Toxic |
| 25.7 µM | CO[C@H]1c2c(O)cccc2C2(Oc3cccc4cccc(c34)O2)[C@H](O)[C@H]1O | Non-Toxic | Non-Toxic | Non-Toxic | Non-Toxic | Non-Toxic |
| > 100 µM | O=C1CC[C@]23Oc4ccc(O)c5c4[C@](Oc4cccc1c42)(O3)[C@H](O)CC5=O | Non-Toxic | Non-Toxic | Non-Toxic | Non-Toxic | Non-Toxic |
| 87.1 µM | COc1cc(O)cc2c1C(=O)O[C@@H](C)CCC[C@H](O)CCC2 | Non-Toxic | Non-Toxic | Non-Toxic | Non-Toxic | Non-Toxic |
| 1.42 µM | COc1cc(/C=C/C(=O)CC(=O)/C=C/c2ccc(O)c(OC)c2)ccc1O [CURCUMIN] |  |  |  |  |  |
| > 100 µM | O=C1C[C@@H](O)[C@]23Oc4cccc5c4[C@](CC[C@@H]5O)(Oc4ccc(O)c1c42)O3 | Non-Toxic | Non-Toxic | Non-Toxic | Non-Toxic | Non-Toxic |
| 67.6 µM | Oc1cccc2c1[C@H](O)C[C@@H](O)C21Oc2cccc3cccc(c23)O1 | Non-Toxic | Non-Toxic | Non-Toxic | Non-Toxic | Non-Toxic |
| > 100 µM | Oc1cccc2c1[C@@H](O)[C@H](O)[C@@H](O)C21Oc2cccc3cccc(c23)O1 | Non-Toxic | Non-Toxic | Non-Toxic | Non-Toxic | Non-Toxic |
| > 100 µM | COc1cc(O)cc2c1C(=O)O[C@@H](C)CCC[C@@H](O)CCC2 | Non-Toxic | Non-Toxic | Non-Toxic | Non-Toxic | Non-Toxic |
